# Reference: publication PMC5666424, “Marine-Derived 2-Aminoimidazolone Alkaloids. Leucettamine B-Related Polyandrocarpamines Inhibit Mammalian and Protozoan DYRK & CLK Kinases” (Marine Drugs, 2017)
# Columns and labels:
# Assay in all cases: KinomeScan
# Settings in all cases: 1 μM
# [1] = biological target: T1, SYK (Homo sapiens, UniProt P43405); assay type: binding
# T1 construct: purchased DiscoverX (KINOMEscan)
# [2] = biological target: T2, ERK5 (Homo sapiens, UniProt Q13164); assay type: binding
# T2 construct: purchased DiscoverX (KINOMEscan)
# [3] = biological target: T3, LATS2 (Homo sapiens, UniProt Q9NRM7); assay type: binding
# T3 construct: purchased DiscoverX (KINOMEscan)
# [4] = biological target: T4, TAOK1 (Homo sapiens, UniProt Q7L7X3); assay type: binding
# T4 construct: purchased DiscoverX (KINOMEscan)
# [5] = biological target: T5, AKT3 (Homo sapiens, UniProt Q9Y243); assay type: binding
# T5 construct: purchased DiscoverX (KINOMEscan)
# [6] = biological target: T6, MINK (Homo sapiens, UniProt Q8N4C8); assay type: binding
# T6 construct: purchased DiscoverX (KINOMEscan)
# [7] = biological target: T7, CAMK2G (Homo sapiens, UniProt Q13555); assay type: binding
# T7 construct: purchased DiscoverX (KINOMEscan)
# [8] = biological target: T8, EPHB3 (Homo sapiens, UniProt P54753); assay type: binding
# T8 construct: purchased DiscoverX (KINOMEscan)
# [9] = biological target: T9, GRK4 (Homo sapiens, UniProt P32298); assay type: binding
# T9 construct: purchased DiscoverX (KINOMEscan)
# [10] = biological target: T10, IKK-beta (Homo sapiens, UniProt O14920); assay type: binding
# T10 construct: purchased DiscoverX (KINOMEscan)
# [11] = biological target: T11, ERK2 (Homo sapiens, UniProt P28482); assay type: binding
# T11 construct: purchased DiscoverX (KINOMEscan)
# [12] = biological target: T12, EGFR(L858R,T790M) (Homo sapiens, UniProt P00533, L858R/T790M); assay type: binding
# T12 construct: purchased DiscoverX (KINOMEscan)
# [13] = biological target: T13, DAPK2 (Homo sapiens, UniProt Q9UIK4); assay type: binding
# T13 construct: purchased DiscoverX (KINOMEscan)
# [14] = biological target: T14, MAP4K2 (Homo sapiens, UniProt Q12851); assay type: binding
# T14 construct: purchased DiscoverX (KINOMEscan)
# [15] = biological target: T15, LYN (Homo sapiens, UniProt P07948); assay type: binding
# T15 construct: purchased DiscoverX (KINOMEscan)
# [16] = biological target: T16, CSNK1A1L (Homo sapiens, UniProt Q8N752); assay type: binding
# T16 construct: purchased DiscoverX (KINOMEscan)
# [17] = biological target: T17, MAP3K3 (Homo sapiens, UniProt Q99759); assay type: binding
# T17 construct: purchased DiscoverX (KINOMEscan)
# [18] = system: EGFR(L747-T751del,Sins); assay type: binding, human
# Protocol: (§1) Assays were performed essentially as described previously. For most assays, kinase-tagged T7 phage strains were grown in parallel in 24-well blocks in an E. coli host derived from the BL21 strain. E. coli were grown to log-phase and infected with T7 phage from a frozen stock (multiplicity of infection ~0.1) and incubated with shaking at 32 °C until lysis (~90 min). The lysates were centrifuged (6000× g) and filtered (0.2 μm) to remove cell debris. The remaining kinases were produced in HEK-293 cells and subsequently tagged with DNA for qPCR detection. […] The liganded beads were blocked with excess biotin and washed with blocking buffer (SeaBlock (Pierce, ThermoFisher Scientific, Illkirch, France), 1% BSA, 0.05% Tween 20, 1 mM DTT) to remove unbound ligand and to reduce non-specific phage binding. […] An 11-point threefold serial dilution of each test compound was prepared in 100% DMSO at 100× final test concentration which and subsequently diluted to 1× in the assay. All reactions were performed in polystyrene 96-well plates in a final volume of 0.135 mL. […] The kinase concentration in the eluates was measured by qPCR.
# [19] = system: FLT3(ITD); assay type: binding, human
# Protocol: as §1
# T9 sequence (P32298 whole entry): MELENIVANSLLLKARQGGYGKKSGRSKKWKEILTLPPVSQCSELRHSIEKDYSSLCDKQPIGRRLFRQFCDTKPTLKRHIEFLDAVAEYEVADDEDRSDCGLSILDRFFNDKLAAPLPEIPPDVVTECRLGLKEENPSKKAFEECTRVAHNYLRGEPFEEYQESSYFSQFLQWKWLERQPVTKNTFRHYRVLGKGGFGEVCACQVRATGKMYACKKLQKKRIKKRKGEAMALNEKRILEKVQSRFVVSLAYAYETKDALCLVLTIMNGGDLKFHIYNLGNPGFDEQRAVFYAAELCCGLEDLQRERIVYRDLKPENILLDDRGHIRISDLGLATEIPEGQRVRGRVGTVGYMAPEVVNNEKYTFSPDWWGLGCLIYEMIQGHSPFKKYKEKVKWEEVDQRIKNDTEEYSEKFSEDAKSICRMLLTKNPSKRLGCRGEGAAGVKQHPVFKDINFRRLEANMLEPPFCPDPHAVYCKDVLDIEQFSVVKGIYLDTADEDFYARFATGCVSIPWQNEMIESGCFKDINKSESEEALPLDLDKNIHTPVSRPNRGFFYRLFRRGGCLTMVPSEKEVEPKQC
# T12 sequence (P00533 25-1210 T790M/L858R): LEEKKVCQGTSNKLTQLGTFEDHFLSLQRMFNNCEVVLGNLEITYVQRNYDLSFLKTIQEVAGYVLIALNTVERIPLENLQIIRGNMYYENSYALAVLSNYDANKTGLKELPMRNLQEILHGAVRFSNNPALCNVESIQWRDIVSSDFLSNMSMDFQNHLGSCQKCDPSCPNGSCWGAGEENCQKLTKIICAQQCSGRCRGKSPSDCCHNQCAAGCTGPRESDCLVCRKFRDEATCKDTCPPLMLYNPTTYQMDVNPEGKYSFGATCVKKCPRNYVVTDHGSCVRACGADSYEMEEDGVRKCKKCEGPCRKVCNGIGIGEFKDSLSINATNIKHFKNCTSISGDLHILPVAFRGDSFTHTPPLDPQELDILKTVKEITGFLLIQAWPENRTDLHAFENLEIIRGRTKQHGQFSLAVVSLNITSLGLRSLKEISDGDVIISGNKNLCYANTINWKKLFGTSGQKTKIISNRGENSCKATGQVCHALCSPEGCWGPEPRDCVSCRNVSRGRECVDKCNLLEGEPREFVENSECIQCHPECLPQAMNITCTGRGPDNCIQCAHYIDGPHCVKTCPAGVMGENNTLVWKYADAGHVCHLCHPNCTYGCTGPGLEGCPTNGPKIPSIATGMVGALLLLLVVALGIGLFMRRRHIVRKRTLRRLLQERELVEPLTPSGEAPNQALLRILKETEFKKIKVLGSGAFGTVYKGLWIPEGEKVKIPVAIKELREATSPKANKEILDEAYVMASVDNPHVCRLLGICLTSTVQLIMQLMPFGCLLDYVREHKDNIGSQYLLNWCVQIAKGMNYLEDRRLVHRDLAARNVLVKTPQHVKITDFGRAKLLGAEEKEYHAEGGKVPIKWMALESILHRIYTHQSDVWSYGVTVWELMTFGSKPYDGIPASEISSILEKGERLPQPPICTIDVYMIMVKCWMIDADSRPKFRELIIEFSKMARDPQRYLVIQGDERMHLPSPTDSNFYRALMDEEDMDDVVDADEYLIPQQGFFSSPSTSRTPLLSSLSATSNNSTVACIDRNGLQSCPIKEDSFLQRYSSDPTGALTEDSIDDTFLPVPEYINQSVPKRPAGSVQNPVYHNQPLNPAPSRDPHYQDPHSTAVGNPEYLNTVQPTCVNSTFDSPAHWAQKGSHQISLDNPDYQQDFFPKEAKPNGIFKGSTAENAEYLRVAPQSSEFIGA
# T7 sequence (Q13555 whole entry): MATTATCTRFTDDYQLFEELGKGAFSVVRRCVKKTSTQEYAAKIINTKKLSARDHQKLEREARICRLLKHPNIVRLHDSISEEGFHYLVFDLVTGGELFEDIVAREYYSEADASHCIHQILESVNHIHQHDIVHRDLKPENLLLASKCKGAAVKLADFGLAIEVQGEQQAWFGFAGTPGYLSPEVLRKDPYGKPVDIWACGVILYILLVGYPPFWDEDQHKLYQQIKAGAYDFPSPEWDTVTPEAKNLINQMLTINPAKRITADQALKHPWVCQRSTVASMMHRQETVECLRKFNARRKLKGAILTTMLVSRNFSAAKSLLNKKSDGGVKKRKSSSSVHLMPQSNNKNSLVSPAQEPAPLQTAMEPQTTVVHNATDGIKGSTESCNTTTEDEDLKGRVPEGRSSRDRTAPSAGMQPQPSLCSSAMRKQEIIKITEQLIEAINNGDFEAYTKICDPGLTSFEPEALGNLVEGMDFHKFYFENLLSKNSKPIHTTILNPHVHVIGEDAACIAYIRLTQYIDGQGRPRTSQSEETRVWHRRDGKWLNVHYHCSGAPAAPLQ
# T8 sequence (P54753 34-998): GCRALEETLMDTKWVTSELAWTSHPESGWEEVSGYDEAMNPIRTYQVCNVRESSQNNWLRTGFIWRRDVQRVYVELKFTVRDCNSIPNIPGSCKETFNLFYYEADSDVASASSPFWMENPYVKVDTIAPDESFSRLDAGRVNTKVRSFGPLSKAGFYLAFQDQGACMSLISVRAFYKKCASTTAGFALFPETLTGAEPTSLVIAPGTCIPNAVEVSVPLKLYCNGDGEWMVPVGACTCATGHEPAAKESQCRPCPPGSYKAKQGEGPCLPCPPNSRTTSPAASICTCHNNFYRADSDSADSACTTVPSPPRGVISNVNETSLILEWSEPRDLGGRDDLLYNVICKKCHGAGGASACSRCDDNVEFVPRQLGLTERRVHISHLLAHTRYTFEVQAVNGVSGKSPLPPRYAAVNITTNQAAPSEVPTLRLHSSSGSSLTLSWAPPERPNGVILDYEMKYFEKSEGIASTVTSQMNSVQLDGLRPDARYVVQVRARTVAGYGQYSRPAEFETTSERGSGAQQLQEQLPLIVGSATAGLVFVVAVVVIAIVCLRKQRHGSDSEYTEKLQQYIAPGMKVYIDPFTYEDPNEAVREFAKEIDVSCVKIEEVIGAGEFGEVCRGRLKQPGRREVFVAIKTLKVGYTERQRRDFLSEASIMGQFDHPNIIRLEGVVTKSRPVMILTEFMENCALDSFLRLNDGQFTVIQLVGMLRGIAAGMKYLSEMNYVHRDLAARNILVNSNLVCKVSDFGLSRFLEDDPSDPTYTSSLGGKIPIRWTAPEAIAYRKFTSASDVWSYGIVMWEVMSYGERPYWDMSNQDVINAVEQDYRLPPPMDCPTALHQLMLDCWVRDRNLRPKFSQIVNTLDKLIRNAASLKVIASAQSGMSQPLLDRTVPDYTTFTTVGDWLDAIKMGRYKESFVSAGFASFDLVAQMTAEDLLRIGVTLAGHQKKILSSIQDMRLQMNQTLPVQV
# T17 sequence (Q99759 whole entry): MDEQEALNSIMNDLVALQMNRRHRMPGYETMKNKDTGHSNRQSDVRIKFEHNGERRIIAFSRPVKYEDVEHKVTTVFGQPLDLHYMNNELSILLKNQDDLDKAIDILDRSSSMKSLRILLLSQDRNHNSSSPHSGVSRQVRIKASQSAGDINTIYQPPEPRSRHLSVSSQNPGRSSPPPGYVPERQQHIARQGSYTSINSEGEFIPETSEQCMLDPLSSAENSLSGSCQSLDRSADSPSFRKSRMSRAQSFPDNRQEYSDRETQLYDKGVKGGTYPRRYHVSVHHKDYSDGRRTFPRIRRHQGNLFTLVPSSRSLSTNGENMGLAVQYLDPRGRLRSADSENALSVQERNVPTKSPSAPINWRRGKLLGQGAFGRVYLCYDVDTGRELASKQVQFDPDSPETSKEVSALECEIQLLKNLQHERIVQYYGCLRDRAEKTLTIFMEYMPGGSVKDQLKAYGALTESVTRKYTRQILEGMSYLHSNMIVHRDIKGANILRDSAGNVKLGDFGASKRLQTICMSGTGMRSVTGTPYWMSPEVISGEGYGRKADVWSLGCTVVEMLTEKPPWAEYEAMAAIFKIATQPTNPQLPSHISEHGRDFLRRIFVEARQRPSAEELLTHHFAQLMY
# T2 sequence (Q13164 whole entry): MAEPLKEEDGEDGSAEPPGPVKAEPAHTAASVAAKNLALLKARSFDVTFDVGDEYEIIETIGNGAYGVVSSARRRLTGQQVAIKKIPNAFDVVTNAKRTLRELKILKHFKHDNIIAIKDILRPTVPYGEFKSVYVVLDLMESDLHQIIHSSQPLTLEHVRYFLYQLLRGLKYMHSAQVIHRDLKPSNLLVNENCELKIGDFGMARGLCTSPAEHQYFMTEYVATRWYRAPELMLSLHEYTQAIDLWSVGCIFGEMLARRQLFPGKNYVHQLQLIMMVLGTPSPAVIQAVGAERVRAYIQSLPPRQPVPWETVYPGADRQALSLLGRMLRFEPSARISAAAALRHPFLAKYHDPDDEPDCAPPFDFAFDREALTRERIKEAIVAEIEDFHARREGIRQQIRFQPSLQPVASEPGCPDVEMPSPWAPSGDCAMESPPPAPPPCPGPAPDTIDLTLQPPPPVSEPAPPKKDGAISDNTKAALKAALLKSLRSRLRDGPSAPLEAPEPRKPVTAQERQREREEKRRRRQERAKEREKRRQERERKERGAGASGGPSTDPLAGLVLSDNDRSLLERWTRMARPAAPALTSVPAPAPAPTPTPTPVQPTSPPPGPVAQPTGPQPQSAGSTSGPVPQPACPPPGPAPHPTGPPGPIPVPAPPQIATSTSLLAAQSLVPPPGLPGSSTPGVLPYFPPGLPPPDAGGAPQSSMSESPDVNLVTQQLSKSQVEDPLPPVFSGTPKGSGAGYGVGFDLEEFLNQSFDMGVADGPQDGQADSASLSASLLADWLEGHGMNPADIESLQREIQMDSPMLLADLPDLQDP
# T16 sequence (Q8N752 whole entry): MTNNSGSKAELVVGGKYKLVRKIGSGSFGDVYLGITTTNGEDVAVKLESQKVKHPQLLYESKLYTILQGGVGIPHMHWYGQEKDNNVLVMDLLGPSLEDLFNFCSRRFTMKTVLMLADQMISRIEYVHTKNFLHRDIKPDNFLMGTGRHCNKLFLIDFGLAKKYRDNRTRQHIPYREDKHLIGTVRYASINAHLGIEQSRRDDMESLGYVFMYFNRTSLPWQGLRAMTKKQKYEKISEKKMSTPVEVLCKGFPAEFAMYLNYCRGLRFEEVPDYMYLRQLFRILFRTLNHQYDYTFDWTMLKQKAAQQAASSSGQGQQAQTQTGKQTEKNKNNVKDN
smiles,measurement,setting,value
COc1cc(/C=C2\N=C(N)NC2=O)ccc1O [Polyandrocarpamine A],Score,[1],100
same,Score,[2],100
same,Score,[3],100
same,Score,[4],76
same,Score,[5],100
same,Score,[6],100
same,Score,[7],99
same,Score,[8],100
same,Score,[9],100
same,Score,[10],100
same,Score,[11],100
same,Score,[12],100
same,Score,[13],58
same,Score,[14],97
same,Score,[15],89
same,Score,[16],100
same,Score,[17],100
same,Score,[18],92
same,Score,[19],100
